Laboratory results taken from patent US20070292888A1, “Methods for Measuring Enzyme Activities in Cells, Blood, Tumors and Tissues” (GEN-PATH PHARMACEUTICALS, INC., priority 2004, published 2007).

Target: T1, glucose-6-phosphate dehydrogenase (G6PDH) (Mus musculus, UniProt Q00612)
T1 construct: from tissue; host or cells: mouse tumor, blood, brain, heart, kidney, liver, lung, spleen (crude lysates)
Assay: Glucose-6-phosphate dehydrogenase activity in tissues of treated mice (fluorescence NADPH assay)
Format: in vivo
Details: 11 days i.p. twice per day, various organs
Experimental: Blood samples from mice were taken (40 μl whole blood) serially or from mice sacrificed at the end of the experiment. Tissues, such as tumors (e.g. from implantation, xenograft, or arising spontaneously), brain, heart, kidney, liver, lung and spleen were taken and flash frozen in liquid nitrogen or on dry ice and stored in −80° C. until time of assay. Four volumes of cold lysis buffer (20 mM HEPES, pH 7.5, 1 mM EDTA, 0.2 g/l Triton X-100® and 0.2 g/L sodium deoxycholate, supplemented with 1 mM DTT and 1 mM PMSF just before use) were added to the blood, which was dissolved by vortexing. For blood that was frozen before coagulation, a clear lysate was obtained. […]
Each reaction was monitored for the appearance of NADH (for transketolase, alpha-ketoglutarate dehydrogenase, pyruvate dehydrogenase) or NADPH (for glucose-6-phosphate dehydrogenase) at room temperature in a fluorescent plate reader with excitation at 340 nm and emission at 470 nm in kinetic mode. The velocity was determined by the slope of the initial linear range of increasing fluorescence, expressed in fluorescent units (FU)/min. The protein concentration in the lysate was determined using Bradford assays (BioRad) with BSA as a standard. […]
We measured enzyme activity in an expanded panel of tissues from mice treated with N3PT or OxyT for 11 days i.p., twice per day. […]

T1 sequence (Q00612 whole entry): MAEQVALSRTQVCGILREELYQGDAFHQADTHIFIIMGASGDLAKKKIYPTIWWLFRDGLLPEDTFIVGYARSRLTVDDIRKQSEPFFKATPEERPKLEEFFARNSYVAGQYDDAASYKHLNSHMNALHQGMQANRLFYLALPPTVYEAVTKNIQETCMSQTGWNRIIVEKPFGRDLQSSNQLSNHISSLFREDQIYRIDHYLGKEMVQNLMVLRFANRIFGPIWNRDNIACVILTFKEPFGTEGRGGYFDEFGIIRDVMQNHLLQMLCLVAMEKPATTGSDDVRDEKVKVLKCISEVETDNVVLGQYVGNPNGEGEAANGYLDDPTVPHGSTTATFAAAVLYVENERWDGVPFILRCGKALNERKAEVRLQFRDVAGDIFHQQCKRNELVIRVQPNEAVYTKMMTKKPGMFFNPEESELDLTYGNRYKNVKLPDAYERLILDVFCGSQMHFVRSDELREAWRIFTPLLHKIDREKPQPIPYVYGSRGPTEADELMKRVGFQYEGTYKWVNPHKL

G6PDH enzymatic activity following treatment: no significant decrease
Compound: Cc1ccc(C[n+]2csc(CCO)c2C)c(N)n1 [N3PT, 3-[(2-amino-6-methyl-3-pyridinyl)methyl]-5-(2-hydroxyethyl)-4-methyl thiazolium]
